Values quoted from earlier work as cited in US20250000898A1, “MAGNESIUM OXIDE-CONTAINING PHARMACEUTICAL COMPOSITION FOR TREATING PEDIATRIC CHRONIC FUNCTIONAL CONSTIPATION” (SETOLAS Holdings, Inc., priority 2021, published 2025).

What was measured:
[1] = test system: children under 15 years of age diagnosed with chronic constipation; settings: for percentage of patients treated successfully for constipation (success rate for treatment of constipation): children under 15 years, median age 2 years 11 months, 3 weeks (magnesium oxide: 50 mg/kg per day, 20 of 49 cases; lactulose: 9 of 50 cases)
[2] = 50 mg/kg daily, 3 weeks

## [O]=[Mg] [magnesium oxide powder, magnesium oxide]
[1]
  percentage of patients treated successfully for constipation (success rate for treatment of constipation): 41%
[1]; second and third weeks after administration, 50 mg/kg daily in two divided doses, 3 weeks
  average frequency of defecation: 5.5±3.15
[1]; second and third weeks after administration, 50 mg/kg daily, 3 weeks
  average stool status score (Bristol Stool Scale): 4.90±0.91
[2]
  hypermagnesemia: None of the patients exhibited hypermagnesemia

## OC[C@H]1O[C@@H](O[C@@H]2[C@@H](CO)OC(O)(CO)[C@H]2O)[C@H](O)[C@@H](O)[C@H]1O (mixture of isomers) [lactulose]
[1]
  percentage of patients treated successfully for constipation (success rate for treatment of constipation): 18%
